These results are taken from patent publication US9988400B2 (Genentech, Inc., priority 2013, dated 2018).

This experiment has as its target T1, HEK cells stably transfected with tetracycline inducible hNR1 and hNR2A (Homo sapiens, UniProt Q05586+Q12879).
T1 construct: expressed in transfected cells; host or cells: HEK cells, stably transfected, tetracycline/doxycycline inducible
Briefly: Assay 1: Cell-Based Assay, cytosolic calcium response to positive allosteric modulators (with 30 μM glycine and 300 nM L-glutamate, EC30). The note with it: for EC50: cytosolic calcium response, with 30 μM glycine and 300 nM L-glutamate (EC30), — = no plateau was reached; for Max %: responses scaled relative to 100 μM L-glutamate maximal response (100%) and 0 μM L-glutamate (0%). The method, boiled down:
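Cells induced 24 h with 7.5 μg mL^−1 doxycycline plus 500 μM (+)-ketamine, loaded 60 min at 37 °C with calcium dye in Mg-free HBSS (1.8 mM Ca, probenecid, 10 μM (+)-ketamine, pH 7.15). Peak RFU over 5 min after compound addition, scaled to 100 μM L-glutamate (100%) and 0 μM (0%); four-parameter Hill fit for EC50, max % if no plateau.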

Molecules are shown by their SMILES.

T1 sequence (Q12879 23-1464, other chains not shown): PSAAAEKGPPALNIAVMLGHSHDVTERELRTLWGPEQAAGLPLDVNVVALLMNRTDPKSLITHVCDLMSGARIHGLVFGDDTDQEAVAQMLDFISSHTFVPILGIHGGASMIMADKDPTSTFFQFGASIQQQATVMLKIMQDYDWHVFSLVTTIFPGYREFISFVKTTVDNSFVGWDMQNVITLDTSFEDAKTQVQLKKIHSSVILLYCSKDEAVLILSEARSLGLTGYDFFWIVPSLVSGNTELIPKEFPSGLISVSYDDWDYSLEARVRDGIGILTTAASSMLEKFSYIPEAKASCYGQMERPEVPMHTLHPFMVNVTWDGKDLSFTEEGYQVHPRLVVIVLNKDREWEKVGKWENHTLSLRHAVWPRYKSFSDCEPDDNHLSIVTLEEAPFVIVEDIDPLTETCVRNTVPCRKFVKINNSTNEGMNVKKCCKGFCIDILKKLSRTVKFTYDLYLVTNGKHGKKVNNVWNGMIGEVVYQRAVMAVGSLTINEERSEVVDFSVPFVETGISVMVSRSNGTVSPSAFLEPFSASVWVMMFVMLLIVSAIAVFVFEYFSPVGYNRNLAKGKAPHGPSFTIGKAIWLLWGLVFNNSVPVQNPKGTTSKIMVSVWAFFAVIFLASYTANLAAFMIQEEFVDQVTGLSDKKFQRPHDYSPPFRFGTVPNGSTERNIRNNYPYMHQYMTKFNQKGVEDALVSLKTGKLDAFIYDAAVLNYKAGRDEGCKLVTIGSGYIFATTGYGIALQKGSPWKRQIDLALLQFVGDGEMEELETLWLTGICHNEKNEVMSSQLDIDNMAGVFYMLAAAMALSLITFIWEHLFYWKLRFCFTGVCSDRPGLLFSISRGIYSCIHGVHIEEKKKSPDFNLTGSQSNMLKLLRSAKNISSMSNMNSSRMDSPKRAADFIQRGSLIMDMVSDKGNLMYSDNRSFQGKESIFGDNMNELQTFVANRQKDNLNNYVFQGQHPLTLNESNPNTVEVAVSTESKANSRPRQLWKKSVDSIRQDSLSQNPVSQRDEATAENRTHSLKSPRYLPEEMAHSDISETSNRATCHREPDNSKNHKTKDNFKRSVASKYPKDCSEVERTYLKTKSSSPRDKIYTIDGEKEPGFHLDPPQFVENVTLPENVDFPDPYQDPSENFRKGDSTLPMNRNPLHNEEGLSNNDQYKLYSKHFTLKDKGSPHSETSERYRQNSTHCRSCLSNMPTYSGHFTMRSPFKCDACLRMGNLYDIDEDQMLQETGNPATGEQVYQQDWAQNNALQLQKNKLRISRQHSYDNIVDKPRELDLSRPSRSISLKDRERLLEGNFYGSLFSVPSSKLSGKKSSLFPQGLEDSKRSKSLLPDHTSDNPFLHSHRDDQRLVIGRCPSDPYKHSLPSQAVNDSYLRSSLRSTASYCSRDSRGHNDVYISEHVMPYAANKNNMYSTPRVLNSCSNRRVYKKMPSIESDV

Take `CCNC(=O)c1c(C(F)F)sc2nc(Cn3nc(Cl)cc3C(F)(F)F)cc(=O)n12` [compound 259, 7-[[3-chloro-5-(trifluoromethyl)pyrazol-1-yl]methyl]-2-(difluoromethyl)-N-ethyl-5-oxo-thiazolo[3,2-a]pyrimidine-3-carboxamide]: the EC50 (Table 3) worked out at 0.749 µM.

For the compound `CNC(=O)c1c(C)sc2nc(Cc3ccc(F)cc3C(F)(F)F)cc(=O)n12` [Example 21.59, 7-[[4-fluoro-2-(trifluoromethyl)phenyl]methyl]-N,2-dimethyl-5-oxo-thiazolo[3,2-a]pyrimidine-3-carboxamide], the Max % (Table 2) was determined as 42.5%. With `O=c1cc(Cn2nc(C(F)(F)F)cc2Cl)nc2sc(C(F)(F)F)c(-c3ccn[nH]3)n12` [compound 247, 7-[[5-chloro-3-(trifluoromethyl)pyrazol-1-yl]methyl]-3-(1H-pyrazol-5-yl)-2-(trifluoromethyl)thiazolo[3,2-a]pyrimidin-5-one], under “Table 3”, the EC50 worked out at 7.7 µM. Same read-out and setting: the result for `O=c1cc(Cn2nc(C(F)(F)F)cc2Cl)nc2scc(Br)n12` [compound 225, 3-bromo-7-[[5-chloro-3-(trifluoromethyl)pyrazol-1-yl]methyl]thiazolo[3,2-a]pyrimidin-5-one] reads 8.69 µM; that for `CCC(=O)c1c(C)sc2nc(Cn3nc(C(F)(F)F)cc3Cl)cc(=O)n12` [compound 140, 7-[[5-chloro-3-(trifluoromethyl)pyrazol-1-yl]methyl]-2-methyl-3-propanoyl-thiazolo[3,2-a]pyrimidin-5-one], 0.147 µM. Consider `Cc1sc2nc(COc3ccc(F)cc3)cc(=O)n2c1C(=O)NC(C)C` [Example 1.10, 7-(4-Fluorophenoxymethyl)-2-methyl-5-oxo-N-(propan-2-yl)-5H-[1,3]thiazolo[3,2-a] pyrimidine-3-carboxamide], for which, for the setting “Table 2”, the Max % is 44%. For `CCN(Cc1cc(=O)n2c(CN3CCCC3)c(C)sc2n1)c1ccc(F)cc1` [Example 10.9, 7-[(N-ethyl-4-fluoro-anilino)methyl]-2-methyl-3-(pyrrolidin-1-ylmethyl)thiazolo[3,2-a]pyrimidin-5-one], under “Table 2”, the Max % amounted to 72.1%. Still for that read-out and setting: under `CCN(Cc1cc(=O)n2c(-c3ccc(=O)[nH]c3)c(C)sc2n1)c1ccc(F)cc1` [Example 5.50, 7-((ethyl(4-fluorophenyl)amino)methyl)-2-methyl-3-(6-oxo-1,6-dihydropyridin-3-yl)-5H-thiazolo[3,2-a]pyrimidin-5-one] stands 96.8%. The same measure, in the same setting: the result for `CCNC(=O)c1c(C)sc2nc(C(C)c3cccc(C(F)(F)F)c3F)cc(=O)n12` (stereo not drawn) [Example 22.1, N-ethyl-7-(1-(2-fluoro-3-(trifluoromethyl)phenyl)ethyl)-2-methyl-5-oxo-5H-thiazolo[3,2-a]pyrimidine-3-carboxamide] reads 96.9%.

Regarding `CCN(Cc1cc(=O)n2c(C#N)c(C)sc2n1)c1cc(F)cc(F)c1` [Example 7.9, 7-(((3,5-difluorophenyl)(ethyl)amino)methyl)-2-methyl-5-oxo-5H-thiazolo[3,2-a]pyrimidine-3-carbonitrile], for the setting “Table 2”, the EC50 stood at 1.3 µM and the Max % was found to be 121%. As for `CCN(Cc1cc(=O)n2c(CO)c(C)sc2n1)c1cccc(C#N)c1` [Example 10.23, 3-(ethyl((3-(hydroxymethyl)-2-methyl-5-oxo-5H-thiazolo[3,2-a]pyrimidin-7-yl)methyl)amino)benzonitrile], where the note is “Table 2”, the EC50 was found to be 22.9 µM and the Max % is 169%. As for `CCNC(=O)c1c(C(F)(F)F)sc2nc(Cn3nc(Cl)cc3Cl)cc(=O)n12` [compound 256, 7-[(3,5-dichloropyrazol-1-yl)methyl]-N-ethyl-5-oxo-2-(trifluoromethyl)thiazolo[3,2-a]pyrimidine-3-carboxamide], the EC50 (Table 3) came out at 0.611 µM. `Cc1sc2nc(COc3cccc(F)c3)cc(=O)n2c1[C@@H]1C[C@H]1CO` (relative stereo) [Example 4.4, 7-((3-fluorophenoxy)methyl)-3-(trans-2-(hydroxymethyl)cyclopropyl)-2-methyl-5H-thiazolo[3,2-a]pyrimidin-5-one]: where the note is “Table 2”, the EC50 is 2.5 µM and the Max % is 138%. Regarding `CCN(Cc1cc(=O)n2c(-c3ccccc3)c(C)sc2n1)c1ccc(F)cc1` [Example 5.22, 7-[(N-ethyl-4-fluoro-anilino)methyl]-2-methyl-3-phenyl-thiazolo[3,2-a]pyrimidin-5-one], for the setting “Table 2”, the EC50 was determined as 1.6 µM and the Max % was 142%.

With `CCNC(=O)c1c(C)sc2nc(Cc3ccccc3F)cc(=O)n12` [Example 21.44, N-ethyl-7-(2-fluorobenzyl)-2-methyl-5-oxo-5H-thiazolo[3,2-a]pyrimidine-3-carboxamide], under “Table 2”, the Max % is listed as 51.9%. For the compound `CC(=O)c1c(C)sc2nc(Cn3nc(C4CC4)cc3C(F)(F)F)cc(=O)n12` [Example 18.3, 3-acetyl-7-((3-cyclopropyl-5-(trifluoromethyl)-1H-pyrazol-1-yl)methyl)-2-methyl-5H-thiazolo[3,2-a]pyrimidin-5-one], for the setting “Table 2”, the EC50 was determined as 25.4 µM and the Max % turned out to be 129%.

On to `Cc1cc(C(F)(F)F)n(Cc2cc(=O)n3c(C(=O)NCC(F)(F)F)c(C)sc3n2)n1` [compound 67, 2-methyl-7-[[3-methyl-5-(trifluoromethyl)pyrazol-1-yl]methyl]-5-oxo-N-(2,2,2-trifluoroethyl)thiazolo[3,2-a]pyrimidine-3-carboxamide], for which the EC50 (Table 3) worked out at 36.6 µM. As to `Cc1sc2nc(COc3ccc(F)cc3)cc(=O)n2c1C(=O)C1CC1` [Example 2.7, 3-Cyclopropanecarbonyl-7-(4-fluorophenoxymethyl)-2-methyl-5H-[1,3]thiazolo[3,2-a]pyrimidin-5-one], where the note is “Table 2”, the EC50 is 26 µM and the Max % is listed as 61.3%. In the case of `CNC(=O)c1c(C)sc2nc(Cc3cccc(C(F)(F)F)c3)cc(=O)n12` [Example 21.15, N,2-dimethyl-5-oxo-7-[[3-(trifluoromethyl)phenyl]methyl]thiazolo[3,2-a]pyrimidine-3-carboxamide], where the note is “Table 2”, the Max % stood at 112%. Consider `CCNC(=O)c1c(C)sc2nc(Cn3nc(Cl)cc3C)cc(=O)n12` [compound 21, 7-[(3-chloro-5-methyl-pyrazol-1-yl)methyl]-N-ethyl-2-methyl-5-oxo-thiazolo[3,2-a]pyrimidine-3-carboxamide], for which the EC50 (Table 3) is 7.88 µM.

As for `Cc1sc2nc(Cn3nc(C4CC4)c(F)c3C(F)(F)F)cc(=O)n2c1C1CC1CO` (stereo not drawn) [Example 15.9, 7-((3-cyclopropyl-4-fluoro-5-(trifluoromethyl)-1H-pyrazol-1-yl)methyl)-3-(trans-2-(hydroxymethyl)cyclopropyl)-2-methyl-5H-thiazolo[3,2-a]pyrimidin-5-one], under “Table 2”, the EC50 was determined as 18.6 µM and the Max % was found to be 117%. For the compound `Cc1sc2nc(Cn3nc(C(F)(F)F)cc3Cl)cc(=O)n2c1-c1cncc(Cl)c1` [compound 149, 3-(5-chloro-3-pyridyl)-7-[[5-chloro-3-(trifluoromethyl)pyrazol-1-yl]methyl]-2-methyl-thiazolo[3,2-a]pyrimidin-5-one], the EC50 (Table 3) stood at 0.729 µM. For `CCNC(=O)c1c(C)sc2nc(Cc3cc(F)ccc3C)cc(=O)n12` [Example 21.36, N-ethyl-7-(5-fluoro-2-methylbenzyl)-2-methyl-5-oxo-5H-thiazolo[3,2-a]pyrimidine-3-carboxamide], the Max % (Table 2) turned out to be 71.8%. Take `CCN(Cc1cc(=O)n2c(C(C)(C)C)csc2n1)c1ccc(F)cc1` [Example 10.18, 3-tert-butyl-7-[(N-ethyl-4-fluoro-anilino)methyl]thiazolo[3,2-a]pyrimidin-5-one]: for the setting “Table 2”, the EC50 was 16.9 µM and the Max % is listed as 88.2%.

As to `Cc1sc2nc(Cn3nc(C(F)(F)F)cc3C(F)(F)F)cc(=O)n2c1-c1cncnc1` [Example 15.30, 7-((3,5-bis(trifluoromethyl)-1H-pyrazol-1-yl)methyl)-2-methyl-3-(pyrimidin-5-yl)-5H-thiazolo[3,2-a]pyrimidin-5-one], where the note is “Table 2”, the EC50 stood at 22 µM and the Max % is 116%. For the compound `CC1CC1c1c(C(F)(F)F)sc2nc(Cn3nc(C(F)(F)F)cc3Cl)cc(=O)n12` (stereo not drawn) [compound 199, 7-[[5-chloro-3-(trifluoromethyl)pyrazol-1-yl]methyl]-3-(2-methylcyclopropyl)-2-(trifluoromethyl)thiazolo[3,2-a]pyrimidin-5-one], where the note is “Table 3”, the EC50 turned out to be 1.39 µM. For the compound `CONC(=O)c1c(C)sc2nc(COc3ccc(F)cc3)cc(=O)n12` [Example 1.16, 7-((4-fluorophenoxy)methyl)-N-methoxy-2-methyl-5-oxo-5H-thiazolo[3,2-a] pyrimidine-3-carboxamide], the Max % (Table 2) is given as 56.5%. As to `CCc1sc2nc(Cc3cccc(C(F)(F)F)c3F)cc(=O)n2c1C(=O)NC` [compound 93, 2-ethyl-7-[[2-fluoro-3-(trifluoromethyl)phenyl]methyl]-N-methyl-5-oxo-thiazolo[3,2-a]pyrimidine-3-carboxamide], the EC50 (Table 3) is 1.83 µM.

With `CNC(=O)c1c(C)sc2nc(Cn3nc(Cl)cc3C(F)(F)F)cc(=O)n12` [compound 97, 7-[[3-chloro-5-(trifluoromethyl)pyrazol-1-yl]methyl]-N,2-dimethyl-5-oxo-thiazolo[3,2-a]pyrimidine-3-carboxamide], the EC50 (Table 3) stood at 5.11 µM. Take `Cc1sc2nc(Cn3nc(C(F)(F)F)cc3C3CC3)cc(=O)n2c1C(=O)NCC(F)(F)F` [compound 57, 7-[[5-cyclopropyl-3-(trifluoromethyl)pyrazol-1-yl]methyl]-2-methyl-5-oxo-N-(2,2,2-trifluoroethyl)thiazolo[3,2-a]pyrimidine-3-carboxamide]: the EC50 (Table 3) was determined as 0.627 µM.
